PubChem BioAssay AID330 (DTP/NCI, 2004)
Where “and” joins values, the source holds several entries; their conditions need not be identical. Equal values may be shown once. Inconclusive results and toxic doses are left out.

Tested on: P388 leukemia ip, CD2F1 mice, survival T/C
Test: NCI In Vivo Anticancer Drug Screen. Data for tumor model P388 Leukemia (intraperitoneal) in CD2F1 (CDF1) mice
Settings: higher = longer survival
Outline: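 Mice carrying the transplanted tumor received test compound or vehicle. Survival was recorded in each group, and the value is the treated-group measurement divided by that of the vehicle-treated control group.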

[1] = endpoint: median survival time, dose: 50.0 mg/kg/injection, schedule: Q01DX009 (ip), vehicle: saline with Tween-80
[2] = endpoint: median survival time, dose: 100.0 mg/kg/injection, schedule: Q01DX009 (ip), vehicle: saline with Tween-80
[3] = endpoint: median survival time, dose: 60.0 mg/kg/injection, schedule: Q01DX005 (ip), vehicle: saline
[4] = endpoint: median survival time, dose: 120.0 mg/kg/injection, schedule: Q01DX005 (ip), vehicle: saline
[5] = endpoint: median survival time, dose: 240.0 mg/kg/injection, schedule: Q01DX005 (ip), vehicle: saline
[6] = endpoint: median survival time, dose: 50.0 mg/kg/injection, schedule: Q01DX009 (ip), vehicle: saline
[7] = endpoint: median survival time, dose: 100.0 mg/kg/injection, schedule: Q01DX009 (ip), vehicle: saline
[8] = endpoint: median survival time, dose: 200.0 mg/kg/injection, schedule: Q01DX009 (ip), vehicle: saline
[9] = endpoint: median survival time, dose: 50.0 mg/kg/injection, schedule: Q01DX005 (ip), vehicle: saline with Tween-80
[10] = endpoint: median survival time, dose: 100.0 mg/kg/injection, schedule: Q01DX005 (ip), vehicle: saline with Tween-80
[11] = endpoint: median survival time, dose: 200.0 mg/kg/injection, schedule: Q01DX005 (ip), vehicle: saline with Tween-80
[12] = endpoint: median survival time, dose: 200.0 mg/kg/injection, schedule: Q01DX009 (ip), vehicle: saline with Tween-80
[13] = endpoint: median survival time, dose: 6.25 mg/kg/injection, schedule: Q01DX005 (ip), vehicle: Klucel (hydroxypropylcellulose) (HPC)
[14] = endpoint: median survival time, dose: 12.5 mg/kg/injection, schedule: Q01DX005 (ip), vehicle: Klucel (hydroxypropylcellulose) (HPC)
[15] = endpoint: median survival time, dose: 50.0 mg/kg/injection, schedule: Q01DX005 (ip), vehicle: Klucel (hydroxypropylcellulose) (HPC)
[16] = endpoint: median survival time, dose: 50.0 mg/kg/injection, schedule: Q01DX009 (ip), vehicle: Klucel (hydroxypropylcellulose) (HPC)
[17] = endpoint: median survival time, dose: 200.0 mg/kg/injection, schedule: Q01DX009 (ip), vehicle: Klucel (hydroxypropylcellulose) (HPC)

SMILES: CCc1cccc(NC(=O)SCc2ccccc2)c1
- T/C [1]: 94 % of control
- T/C [2]: 98 % of control

SMILES: C[C@H](N)C(=O)NCCNC(=O)[C@H](C)N
- T/C [3]: 96 % of control
- T/C [4]: 107 % of control
- T/C [5]: 105 % of control

SMILES: NC(=O)N/N=C1\C(=O)N(c2ccc(S(N)(=O)=O)cc2)C(=O)C1C(=O)Nc1ccc(S(N)(=O)=O)cc1 (configuration not stated)
- T/C [3]: 106 % of control
- T/C [4]: 102 % of control
- T/C [5]: 102 % of control

SMILES: COc1ccc(/C(C)=N/OC(=O)c2c(-c3ccccc3Cl)noc2C)cc1CN1CCOCC1
- T/C [6]: 94 % of control
- T/C [7]: 97 % of control
- T/C [8]: 97 % of control

SMILES: Cc1ccc(S(=O)(=O)C(CCS(C)(=O)=O)C(=O)c2ccccc2)cc1 (configuration not stated)
- T/C (endpoint: median survival time, dose: 60.0 mg/kg/injection, schedule: Q01DX005 (ip), vehicle: saline with Tween-80): 100 % of control and 93 % of control
- T/C (endpoint: median survival time, dose: 120.0 mg/kg/injection, schedule: Q01DX005 (ip), vehicle: saline with Tween-80): 92 % of control
- T/C (endpoint: median survival time, dose: 240.0 mg/kg/injection, schedule: Q01DX005 (ip), vehicle: saline with Tween-80): 88 % of control and 90 % of control and 91 % of control

SMILES: CCC(O)C#C[Si](C)(C)C (configuration not stated)
- T/C [3]: 97 % of control
- T/C [4]: 100 % of control
- T/C [5]: 103 % of control

SMILES: Cc1cc2c(=O)[nH]c(N)nc2nc1C
- T/C [9]: 100 % of control
- T/C [10]: 96 % of control
- T/C [11]: 102 % of control

SMILES: COC(OC)/C(C)=N/NC1=Nc2ccc(Cl)cc2C(c2ccccc2Cl)=NC1
- T/C [1]: 98 % of control
- T/C [2]: 95 % of control
- T/C [12]: 101 % of control

SMILES: CC(C)(C)NCC(CN1CCOCC1)C(=O)c1ccccc1 (configuration not stated)
- T/C [13]: 99 % of control
- T/C [14]: 96 % of control

SMILES: CN(c1ccccc1)P(C)(Cl)(c1ccccc1)c1ccccc1
- T/C (endpoint: median survival time, dose: 1.56 mg/kg/injection, schedule: Q01DX009 (ip), vehicle: saline with Tween-80): 101 % of control
- T/C (endpoint: median survival time, dose: 3.13 mg/kg/injection, schedule: Q01DX009 (ip), vehicle: saline with Tween-80): 109 % of control
- T/C (endpoint: median survival time, dose: 6.25 mg/kg/injection, schedule: Q01DX009 (ip), vehicle: saline with Tween-80): 118 % of control

SMILES: c1ccc2c(C3CO3)c3ccccc3c(C3CO3)c2c1 (configuration not stated)
- T/C [6]: 99 % of control
- T/C [7]: 116 % of control
- T/C [8]: 116 % of control

SMILES: CN(Cc1ccccc1)C(c1ccccc1)C1(c2ccccc2)Cc2ccccc2C(=O)O1 (configuration not stated)
- T/C [15]: 87 % of control
- T/C (endpoint: median survival time, dose: 100.0 mg/kg/injection, schedule: Q01DX005 (ip), vehicle: Klucel (hydroxypropylcellulose) (HPC)): 87 % of control
- T/C (endpoint: median survival time, dose: 200.0 mg/kg/injection, schedule: Q01DX005 (ip), vehicle: Klucel (hydroxypropylcellulose) (HPC)): 87 % of control

SMILES: CCCCNC(=O)C(c1ccccc1)c1ccccc1
- T/C [16]: 99 % of control
- T/C (endpoint: median survival time, dose: 100.0 mg/kg/injection, schedule: Q01DX009 (ip), vehicle: Klucel (hydroxypropylcellulose) (HPC)): 106 % of control
- T/C [17]: 100 % of control

SMILES: COC(=O)Nc1cn2cc(C(=O)c3cccs3)ccc2n1
- T/C [16]: 113 % of control
- T/C [17]: 151 % of control

SMILES: CCCSCC(C)C
- T/C [1]: 100 % of control
- T/C [2]: 100 % of control
- T/C [12]: 109 % of control

SMILES: O=C(/C=C/c1c(Cl)cccc1Cl)c1ccc(Cl)cc1
- T/C (endpoint: median survival time, dose: 100.0 mg/kg/injection, schedule: Q04DX003 (ip), vehicle: saline with Tween-80): 100 % of control
- T/C (endpoint: median survival time, dose: 200.0 mg/kg/injection, schedule: Q04DX003 (ip), vehicle: saline with Tween-80): 100 % of control
- T/C (endpoint: median survival time, dose: 400.0 mg/kg/injection, schedule: Q04DX003 (ip), vehicle: saline with Tween-80): 109 % of control

SMILES: C1=Cc2cc(CN3CCOCC3)ccc2Nc2ccc(CN3CCOCC3)cc21
- T/C (endpoint: median survival time, dose: 60.0 mg/kg/injection, schedule: Q01DX005 (ip), vehicle: Klucel (hydroxypropylcellulose) (HPC)): 96 % of control
- T/C (endpoint: median survival time, dose: 120.0 mg/kg/injection, schedule: Q01DX005 (ip), vehicle: Klucel (hydroxypropylcellulose) (HPC)): 94 % of control
- T/C (endpoint: median survival time, dose: 240.0 mg/kg/injection, schedule: Q01DX005 (ip), vehicle: Klucel (hydroxypropylcellulose) (HPC)): 99 % of control

SMILES: CCO
- T/C (endpoint: median survival time, dose: 250.0 mg/kg/injection, schedule: Q01DX009 (ip), vehicle: saline with Tween-80): 95 % of control
- T/C (endpoint: median survival time, dose: 0.5 % in 0.5 ml injection vol, schedule: Q01DX009 (ip), vehicle: water): 94 % of control
- T/C (endpoint: median survival time, dose: 500.0 mg/kg/injection, schedule: Q01DX009 (ip), vehicle: saline with Tween-80): 90 % of control
- T/C (endpoint: median survival time, dose: 1.0 % in 0.5 ml injection vol, schedule: Q01DX009 (ip), vehicle: water): 92 % of control
- T/C (endpoint: median survival time, dose: 1000.0 mg/kg/injection, schedule: Q01DX009 (ip), vehicle: saline with Tween-80): 95 % of control
- T/C (endpoint: median survival time, dose: 2.0 % in 0.5 ml injection vol, schedule: Q01DX009 (ip), vehicle: water): 102 % of control and 94 % of control
- T/C (endpoint: median survival time, dose: 2000.0 mg/kg/injection, schedule: Q01DX009 (ip), vehicle: saline with Tween-80): 95 % of control
- T/C (endpoint: median survival time, dose: 4.0 % in 0.5 ml injection vol, schedule: Q01DX009 (ip), vehicle: water): 101 % of control and 106 % of control
- T/C (endpoint: median survival time, dose: 8.0 % in 0.5 ml injection vol, schedule: Q01DX009 (ip), vehicle: water): 100 % of control and 103 % of control
- T/C (endpoint: median survival time, dose: 16.0 % in 0.5 ml injection vol, schedule: Q01DX009 (ip), vehicle: water): 100 % of control

SMILES: C[C@@H]1C[C@H]2[C@@H]3CCC4=CC(=O)C=C[C@]4(C)[C@@]3(F)[C@@H](O)C[C@]2(C)[C@@]1(O)C(=O)CO
- T/C (endpoint: median survival time, dose: 25.0 mg/kg/injection, schedule: Q01DX009 (ip), vehicle: saline sonified): 100 % of control
- T/C (endpoint: median survival time, dose: 50.0 mg/kg/injection, schedule: Q01DX009 (ip), vehicle: saline sonified): 90 % of control

SMILES: CCOC(=O)C1=C(C)/C(=C/c2[n-]c(C)c(C(=O)OCC)c2C)N=C1C.CCOC(=O)C1=C(C)/C(=C/c2[n-]c(C)c(C(=O)OCC)c2C)N=C1C.[Co+2]
- T/C (endpoint: mean survival time, dose: 12.5 mg/kg/injection, schedule: Q01DX001 (ip), vehicle: saline with Tween-80): 95 % of control
- T/C (endpoint: mean survival time, dose: 25.0 mg/kg/injection, schedule: Q01DX001 (ip), vehicle: saline with Tween-80): 92 % of control
- T/C (endpoint: mean survival time, dose: 50.0 mg/kg/injection, schedule: Q01DX001 (ip), vehicle: saline with Tween-80): 90 % of control

SMILES: CC(=O)OCC12C(=O)CC(C)C3(CC(c4ccoc4)OC3=O)C1(C)CCCC21CO1 (configuration not stated)
- T/C (endpoint: median survival time, dose: 3.12 mg/kg/injection, schedule: Q01DX005 (ip), vehicle: Klucel (hydroxypropylcellulose) (HPC)): 97 % of control
- T/C [13]: 97 % of control
- T/C [14]: 99 % of control
- T/C (endpoint: median survival time, dose: 25.0 mg/kg/injection, schedule: Q01DX005 (ip), vehicle: Klucel (hydroxypropylcellulose) (HPC)): 92 % of control
- T/C [15]: 94 % of control

SMILES: Nc1n[n+](-c2ccc3ccccc3c2)no1
- T/C (endpoint: median survival time, dose: 3.13 mg/kg/injection, schedule: Q01DX009 (ip), vehicle: water): 98 % of control
- T/C (endpoint: median survival time, dose: 6.25 mg/kg/injection, schedule: Q01DX009 (ip), vehicle: water): 109 % of control
- T/C (endpoint: median survival time, dose: 12.5 mg/kg/injection, schedule: Q01DX009 (ip), vehicle: water): 120 % of control
- T/C (endpoint: median survival time, dose: 25.0 mg/kg/injection, schedule: Q01DX009 (ip), vehicle: water): 120 % of control

SMILES: C[Si](C)(Cn1ccc(=O)n(C[Si](C)(C)c2ccccc2)c1=O)c1ccccc1
- T/C (endpoint: median survival time, dose: 81.0 mg/kg/injection, schedule: Q04DX002 (ip), vehicle: saline with Tween-80): 100 % of control
- T/C (endpoint: median survival time, dose: 162.0 mg/kg/injection, schedule: Q04DX002 (ip), vehicle: saline with Tween-80): 104 % of control
- T/C (endpoint: median survival time, dose: 324.0 mg/kg/injection, schedule: Q04DX002 (ip), vehicle: saline with Tween-80): 106 % of control

SMILES: CCCCCCCCCCCCCCCCCS(=O)S(=O)O (configuration not stated)
- T/C [1]: 113 % of control
- T/C [2]: 118 % of control
- T/C (endpoint: median survival time, dose: 100.0 mg/kg/injection, schedule: Q04DX003 (ip), vehicle: Klucel (hydroxypropylcellulose) (HPC)): 100 % of control
- T/C [12]: 122 % of control
- T/C (endpoint: median survival time, dose: 200.0 mg/kg/injection, schedule: Q04DX003 (ip), vehicle: Klucel (hydroxypropylcellulose) (HPC)): 109 % of control
- T/C (endpoint: median survival time, dose: 400.0 mg/kg/injection, schedule: Q04DX003 (ip), vehicle: Klucel (hydroxypropylcellulose) (HPC)): 113 % of control

SMILES: COC(=O)C(=O)c1cc(=O)[nH]c(NC(C)=O)n1
- T/C (endpoint: median survival time, dose: 100.0 mg/kg/injection, schedule: Q01DX001 (ip), vehicle: saline with Tween-80): 107 % of control
- T/C (endpoint: median survival time, dose: 200.0 mg/kg/injection, schedule: Q01DX001 (ip), vehicle: saline with Tween-80): 101 % of control
- T/C (endpoint: median survival time, dose: 400.0 mg/kg/injection, schedule: Q01DX001 (ip), vehicle: saline with Tween-80): 107 % of control

SMILES: CC(c1ccc(O)cc1)c1cc2c(cc1OCCO)OCO2 (configuration not stated)
- T/C [9]: 94 % of control
- T/C [10]: 91 % of control
- T/C [11]: 92 % of control
